Experimental data as given in patent US20160206620A1, “PURIN DERIVATIVES FOR USE IN THE TREATMENT OF FAB-RELATED DISEASES” (Boehringer Ingelheim International GmbH, priority 2008, published 2016).

Key:
[1] = 2 h postprandial blood glucose excursions in patients with type 2 diabetes; format: in vivo, human; details: already on Day 1, doses ≧2.5 mg
Text: […]. […] […]. […] […].

clinical = details: human, urine
ob/ob mice [2] = assay: Oral glucose tolerance test in ob/ob mice; format: in vivo, mouse; details: 3 mg/kg daily, OGTT 2 g/kg on day 10
Procedure: (§1) Female C57BI/6J-ob/ob mice (Charles River, Sulzfeld) in the age of 8-9 weeks were used. 6 excisional wounds (including the panniculus carnosus) were placed on the back of each animal under ketamin anaesthesia. The animals were treated daily with 3 mg/kg of BI 1356 or methycellulose (1-2%). On day 10 an oral glucose tolerance test (2 g/kg) was performed (0, 30, 60, 90, 120 and 180 min) at the tail tip. Animals were killed under isofluran anaesthesia by cervical dislocation and wounds were excised for histological analysis. Serum was further taken for the detection of DPP-4 activity. Histology was performed in 6-8 μm paraffin embedded and paraformaldehyd fixed cuttings with eosin-hematoxylin staining. Moreover, polymorphonuclear neutrophils (PMN) were identified by immunohistological staining of Ly6G as a robust readout for wound inflammation. (Ref. S. Frank, Methods in Molecular Medicine 2003, Kämpfer, Diabetes 2006)

[3] = Safety and tolerability in people with type 2 diabetes
ob/ob mice [4] = assay: Wound healing of excisional wounds in ob/ob mice (histology, Ly6G staining); format: in vivo, mouse; details: 3 mg/kg daily
Text: The ob/ob mice have been used and are accepted as experimental model for diabetes-impaired wound healing. These animals suffer from severe diabetes and obesity syndromes which show similar characteristics like in the human situation (e.g. obesity, insulin resistance). Insulin and diet reduce hyperglycemia in obese mice just they as they do in obese and diabetic subjects, but neither improves healing in these animals as has been shown recently.
as §1

[5] = Pharmacokinetics of BI 1356 in patients with type 2 diabetes, multiple oral doses once daily for 12 days; details: for RA, AUC (accumulation ratio), gMean (gCV) / RA, Cmax (accumulation ratio), gMean (gCV) / feτ, ss, gMean (gCV): steady state (Day 12); for fe0-24, gMean (gCV): type 2 diabetes patients

CC#CCn1c(N2CCC[C@@H](N)C2)nc2c1c(=O)n(Cc1nc(C)c3ccccc3n1)c(=O)n2C [BI 1356, 1-[(4-methyl-quinazolin-2-yl)methyl]-3-methyl-7-(2-butyn-1-yl)-8-(3-(R)-amino-piperidin-1-yl)-xanthine]
decrease in 2 h postprandial blood glucose excursions [1]: ≥ 80%
CL renal (clinical; oral, 5 mg): ~70 mL/min
CL renal (clinical; po): 14 to 70 mL/min
reduction of glucose excursion following oral glucose tolerance assay (absolute AUC) (ob/ob mice [2]): 25%
safety and tolerability [3]: placebo-like safety and tolerability
PMN accumulation in wounds (Ly6G immunohistology) (ob/ob mice [4]): overall reduction of PMN accumulation
wound morphology and wound re-epithelialization (histology) (ob/ob mice [4]): profound improvement of wound morphology and wound re-epithelialization
distance between wound margin epithelia (wound size) (ob/ob mice [4]; treated for 12 day, control 2.02±1.07 mm): 0.74±0.90 mm
RA, AUC (accumulation ratio), gMean (gCV) ([5]; 1 mg oral once daily): 2.03 (30.7)
RA, Cmax (accumulation ratio), gMean (gCV) ([5]; 1 mg oral once daily): 1.44 (25.6)
feτ, ss, gMean (gCV) ([5]; 1 mg oral once daily): 3.34 (38.3) %
RA, AUC (accumulation ratio), gMean (gCV) ([5]; 2.5 mg oral once daily): 1.37 (8.2)
RA, Cmax (accumulation ratio), gMean (gCV) ([5]; 2.5 mg oral once daily): 1.25 (10.6)
feτ, ss, gMean (gCV) ([5]; 2.5 mg oral once daily): 3.06 (45.1) %
fe0-24, gMean (gCV) ([5]; 2.5 mg oral once daily): 0.139 (51.2) %
RA, AUC (accumulation ratio), gMean (gCV) ([5]; 5 mg oral once daily): 1.33 (15.0)
RA, Cmax (accumulation ratio), gMean (gCV) ([5]; 5 mg oral once daily): 1.33 (30.0)
feτ, ss, gMean (gCV) ([5]; 5 mg oral once daily): 6.27 (42.2) %
fe0-24, gMean (gCV) ([5]; 5 mg oral once daily): 0.453 (125)^ %
RA, AUC (accumulation ratio), gMean (gCV) ([5]; 10 mg oral once daily): 1.18 (23.4)
RA, Cmax (accumulation ratio), gMean (gCV) ([5]; 10 mg oral once daily): 1.40 (47.7)
feτ, ss, gMean (gCV) ([5]; 10 mg oral once daily): 3.22 (34.2) %
fe0-24, gMean (gCV) ([5]; 10 mg oral once daily): 0.919 (115)^ %
mean accumulation ratio RA,AUC ([5]; doses above 1 mg, once daily oral): ≤ 1.4
excreted via the kidney ([5]; therapeutic oral dose levels): < 7 % of the administered oral dose
route of excretion ([5]; therapeutic oral dose levels): primarily excreted unchanged via the bile
